Laboratory results published in PMC2099433, “The binding site for neohesperidin dihydrochalcone at the human sweet taste receptor” (BMC Structural Biology, 2007).

System: rat Tas1r3 with heptahelical domain of human TAS1R3, coexpressed with rat Tas1r2
Assay: Calcium response, chimeric receptor
Type: cell-based
Details: 1 mM NHDC
From the text: In order to elucidate the putative binding site for NHDC, we cotransfected mixtures of plasmid DNAs for the rat and human TAS1R2 and TAS1R3 receptor subunits in HEK293T cells stably expressing the chimeric G-protein G16Gust44 and measured cellular calcium responses by fluorometry following bath application of various sweet tasting compounds. […].
Figure 1 Chemical structure and calcium responses elicited by neohesperidin dihydrochalcone. (A) Structure of neohesperidin dihydrochalcone. Numbers denote carbon atom positions. (B) Representative calcium traces elicited upon stimulation with different concentrations of neohesperidin dihydrochalcone (NHDC) in HEK293T-G16Gust44 cells cotransfected with DNA for hTAS1R2/hTAS1R3. […]
The cDNAs for TAS1Rs tagged at the C-terminus with the herpes simplex virus glycoprotein D (HSV) were transiently transfected into HEK293T cells stably expressing the chimeric G-protein subunit G16Gust44 [44] using Lipofectamine 2000 (Invitrogen, Carlsbad, CA) according to the manufacturer's protocol. […] We monitored calcium mobilization following receptor stimulation with sweet tastants by an automated fluorometric imaging plate reader (FLIPR, Molecular Devices, Sunnyvale, CA). […] The obtained calcium signals were corrected for the response of mock transfected cells and normalized to the fluorescence of cells prior to the application of the stimulus using ΔF/F = (F-F0)/F0. […]

calcium response: sensitive for NHDC
SMILES: COc1ccc(CCC(=O)c2c(O)cc(O[C@@H]3O[C@H](CO)[C@@H](O)[C@H](O)[C@H]3O[C@@H]3O[C@@H](C)[C@H](O)[C@@H](O)[C@H]3O)cc2O)cc1O [NHDC, neohesperidin dihydrochalcone]
